Measurements taken from ChEMBL document CHEMBL1287696, “N-substituted pyrrolidines and tetrahydrofurans as novel AMPAR positive modulators” (Bioorg Med Chem Lett, 2010).

How the values were obtained:
Glutamate receptor 2 [1] = biological target: T1, Glutamate receptor 2 (Homo sapiens, UniProt P42262); assay: Positive modulation of human GluA2 flip receptor by FLIPR assay relative to cyclothiazide; parameters: concentration or dose not given beside the values
Glutamate receptor 2 [2] = biological target: T1, Glutamate receptor 2; assay: Positive modulation of human GluA2 flip receptor by FLIPR assay
[3] = biological target: Voltage-gated inwardly rectifying potassium channel KCNH2 (Homo sapiens, UniProt Q12809); assay: Displacement of [3H]-dofetilide from human hERG
Chain of Voltage-gated inwardly rectifying potassium channel KCNH2 (Q12809 whole entry): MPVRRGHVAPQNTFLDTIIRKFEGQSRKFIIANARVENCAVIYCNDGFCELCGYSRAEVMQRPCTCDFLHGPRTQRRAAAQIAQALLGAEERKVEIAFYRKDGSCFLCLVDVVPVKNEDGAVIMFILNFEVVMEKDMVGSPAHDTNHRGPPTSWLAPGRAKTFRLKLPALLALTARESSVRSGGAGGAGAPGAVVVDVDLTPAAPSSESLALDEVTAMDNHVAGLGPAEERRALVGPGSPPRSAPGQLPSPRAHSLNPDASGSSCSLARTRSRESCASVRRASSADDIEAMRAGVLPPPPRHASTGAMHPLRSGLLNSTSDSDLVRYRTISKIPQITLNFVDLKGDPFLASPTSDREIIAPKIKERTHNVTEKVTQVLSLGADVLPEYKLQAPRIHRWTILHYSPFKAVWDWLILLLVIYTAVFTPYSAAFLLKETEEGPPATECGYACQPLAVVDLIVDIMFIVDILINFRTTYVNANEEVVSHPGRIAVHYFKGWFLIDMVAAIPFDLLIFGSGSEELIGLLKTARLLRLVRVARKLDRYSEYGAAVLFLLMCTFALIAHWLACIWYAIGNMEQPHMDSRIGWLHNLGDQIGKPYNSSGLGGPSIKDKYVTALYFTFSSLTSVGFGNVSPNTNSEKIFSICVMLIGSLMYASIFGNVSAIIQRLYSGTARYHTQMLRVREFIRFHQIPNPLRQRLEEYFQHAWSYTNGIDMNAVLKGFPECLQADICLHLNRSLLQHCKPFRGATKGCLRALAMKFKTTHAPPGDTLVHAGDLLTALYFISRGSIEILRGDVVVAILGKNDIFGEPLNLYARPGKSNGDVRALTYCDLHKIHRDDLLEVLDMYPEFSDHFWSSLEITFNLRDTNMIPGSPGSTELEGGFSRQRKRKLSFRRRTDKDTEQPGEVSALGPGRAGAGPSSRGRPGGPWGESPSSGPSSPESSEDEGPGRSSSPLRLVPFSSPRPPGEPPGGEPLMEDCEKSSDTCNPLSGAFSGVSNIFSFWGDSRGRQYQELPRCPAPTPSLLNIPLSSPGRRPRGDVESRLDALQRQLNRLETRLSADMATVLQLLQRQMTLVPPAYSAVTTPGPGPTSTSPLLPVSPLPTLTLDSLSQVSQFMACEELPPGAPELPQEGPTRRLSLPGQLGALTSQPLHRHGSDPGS

Liver microsomes = assay: Intrinsic clearance in human liver microsomes; assay type: ADME, Microsome
[4] = Aqueous solubility of the compound; assay type: physicochemical; conditions: aqueous medium
[5] = Half life in rat; assay type: ADME, organism-based; conditions: in vivo
[6] = Ratio of drug level in brain to blood in rat

T1 sequence (P42262 whole entry): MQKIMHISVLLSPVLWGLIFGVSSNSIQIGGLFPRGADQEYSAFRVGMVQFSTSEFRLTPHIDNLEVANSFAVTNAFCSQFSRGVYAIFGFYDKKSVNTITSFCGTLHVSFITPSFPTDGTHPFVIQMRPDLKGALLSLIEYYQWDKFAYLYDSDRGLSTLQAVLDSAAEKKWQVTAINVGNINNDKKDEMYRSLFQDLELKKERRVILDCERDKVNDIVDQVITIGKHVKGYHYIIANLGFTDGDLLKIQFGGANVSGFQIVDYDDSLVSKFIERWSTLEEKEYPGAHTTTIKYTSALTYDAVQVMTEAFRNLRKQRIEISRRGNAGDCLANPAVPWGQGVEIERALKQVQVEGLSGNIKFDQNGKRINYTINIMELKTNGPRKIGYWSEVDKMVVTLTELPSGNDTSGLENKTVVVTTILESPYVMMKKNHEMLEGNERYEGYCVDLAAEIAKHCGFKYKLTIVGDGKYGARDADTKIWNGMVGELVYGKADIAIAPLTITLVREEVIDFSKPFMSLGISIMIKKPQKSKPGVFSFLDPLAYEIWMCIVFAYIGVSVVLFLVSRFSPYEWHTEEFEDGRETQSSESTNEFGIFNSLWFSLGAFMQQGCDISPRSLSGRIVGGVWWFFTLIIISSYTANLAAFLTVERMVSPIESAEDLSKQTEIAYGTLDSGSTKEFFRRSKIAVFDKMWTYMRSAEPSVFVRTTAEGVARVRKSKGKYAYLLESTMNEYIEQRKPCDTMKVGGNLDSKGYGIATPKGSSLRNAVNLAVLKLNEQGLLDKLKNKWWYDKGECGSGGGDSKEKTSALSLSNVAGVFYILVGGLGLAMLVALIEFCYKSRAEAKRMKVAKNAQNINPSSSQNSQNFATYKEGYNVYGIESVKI

## CC(=O)c1cccc(-c2ccc(C3CN(C)C[C@@H]3NS(=O)(=O)C(C)C)cc2)c1 (single isomer, unassigned)
Glutamate receptor 2 [1]
  Activity: 73%
Glutamate receptor 2 [2]
  EC50: 6.3 µM
[3]
  IC50: 7.9 µM

## CC(C)S(=O)(=O)N[C@H]1CN(c2ccccc2)CC1c1ccc(-c2ccc(F)nc2)cc1 (single isomer, unassigned)
Glutamate receptor 2 [1]
  Activity: 74%
Glutamate receptor 2 [2]
  EC50: 4 µM
[3]
  IC50: 0.08 µM

## CC(C)S(=O)(=O)N[C@@H]1COCC1c1ccc(-c2cccs2)cc1 (single isomer, unassigned)
Glutamate receptor 2 [1]
  Activity: 117%
Glutamate receptor 2 [2]
  EC50: 0.3 µM
[3]
  IC50: > 63 µM

## CC(C)S(=O)(=O)N[C@H]1CN(C)CC1c1ccc(-c2cccnc2F)cc1 (single isomer, unassigned)
Glutamate receptor 2 [1]
  Activity: 101%
Glutamate receptor 2 [2]
  EC50: 2.5 µM
[3]
  IC50: 6.3 µM

## CC(C)S(=O)(=O)N[C@H]1CN(C)CC1c1ccc(-c2cccc(C(F)(F)F)c2)cc1 (single isomer, unassigned)
Glutamate receptor 2 [1]
  Activity: 26%
Glutamate receptor 2 [2]
  EC50: 79.4 µM

## CC(C)S(=O)(=O)N[C@H]1CN(C)CC1c1ccc(-c2ccccc2F)cc1 (single isomer, unassigned)
Glutamate receptor 2 [1]
  Activity: 20%
Glutamate receptor 2 [2]
  EC50: 2.5 µM

## CC(C)S(=O)(=O)N[C@H]1CN(C)CC1c1ccc(-c2ccc(F)nc2)cc1 (single isomer, unassigned)
Glutamate receptor 2 [1]
  Activity: 117%
Liver microsomes
  CL: 0.8 mL/min/g
Glutamate receptor 2 [2]
  EC50: 5 µM
[3]
  IC50: 1 µM

## CC(C)S(=O)(=O)N[C@H]1CN(c2ccccc2)CC1c1ccc(-c2cccc(NS(C)(=O)=O)c2)cc1 (single isomer, unassigned)
Glutamate receptor 2 [1]
  Activity: 38%
Glutamate receptor 2 [2]
  EC50: 5 µM

## CCN1CC(c2ccc(-c3cccc(NS(C)(=O)=O)c3)cc2)[C@@H](NS(=O)(=O)C(C)C)C1 (single isomer, unassigned)
Glutamate receptor 2 [1]
  Activity: 111%
Liver microsomes
  CL: 0.7 mL/min/g
Glutamate receptor 2 [2]
  EC50: 1.6 µM
[3]
  IC50: 2.5 µM

## CCN1CC(c2ccc(-c3ccc(C#N)cc3)cc2)[C@@H](NS(=O)(=O)C(C)C)C1 (single isomer, unassigned)
Glutamate receptor 2 [1]
  Activity: 90%
Liver microsomes
  CL: 1.2 mL/min/g
Glutamate receptor 2 [2]
  EC50: 7.9 µM

## CC(C)S(=O)(=O)N[C@@H]1COCC1c1ccc(-c2cncc(F)c2)cc1 (single isomer, unassigned)
Glutamate receptor 2 [1]
  Activity: 131%
Liver microsomes
  CL: 0.6 mL/min/g
Glutamate receptor 2 [2]
  EC50: 0.3 µM
[3]
  IC50: > 63 µM

## CC(C)N1CC(c2ccc(-c3ccc(C#N)cc3)cc2)[C@@H](NS(=O)(=O)C(C)C)C1 (single isomer, unassigned)
Glutamate receptor 2 [1]
  Activity: 30%
Glutamate receptor 2 [2]
  EC50: 20 µM

## CC(C)S(=O)(=O)N[C@@H]1COCC1c1ccc(-c2ccc(C#N)cc2)cc1 (single isomer, unassigned)
Glutamate receptor 2 [1]
  Activity: 112%
Glutamate receptor 2 [2]
  EC50: 0.5 µM
[3]
  IC50: 12.6 µM

## CC(C)S(=O)(=O)N[C@H]1CN(c2ccccc2)CC1c1ccc(-c2ccc(C#N)cc2)cc1 (single isomer, unassigned)
Glutamate receptor 2 [1]
  Activity: 48%
Glutamate receptor 2 [2]
  EC50: 6.2 µM
[3]
  IC50: 0.8 µM

## CC(C)S(=O)(=O)N[C@H]1CN(C)CC1c1ccc(-c2cccc(NS(C)(=O)=O)c2)cc1 (single isomer, unassigned)
Glutamate receptor 2 [1]
  Activity: 124%
[4]
  solubility: > 9000 µg/mL
Glutamate receptor 2 [2]
  EC50: 0.3 µM
[3]
  IC50: 31.6 µM

## CC(C)N1CC(c2ccc(-c3cccc(NS(C)(=O)=O)c3)cc2)[C@@H](NS(=O)(=O)C(C)C)C1 (single isomer, unassigned)
Glutamate receptor 2 [1]
  Activity: 89%
Liver microsomes
  CL: 0.7 mL/min/g

## CC(C)S(=O)(=O)N[C@H]1CN(C)CC1c1ccc(-c2ccc(C#N)cc2)cc1 (single isomer, unassigned)
Glutamate receptor 2 [1]
  Activity: 109%
[4]
  solubility: > 2700 µg/mL
Liver microsomes
  CL: 0.8 mL/min/g
[5]
  half-life: > 2 h
Glutamate receptor 2 [2]
  EC50: 5 µM
[6]
  Kp: 1.8

## CC(C)S(=O)(=O)N[C@@H]1COCC1c1ccc(-c2ccsc2)cc1 (single isomer, unassigned)
Glutamate receptor 2 [1]
  Activity: 120%
Glutamate receptor 2 [2]
  EC50: 0.4 µM

## CC(=O)c1cccc(-c2ccc(C3COC[C@H]3NS(=O)(=O)C(C)C)cc2)c1 (single isomer, unassigned)
Glutamate receptor 2 [1]
  Activity: 124%
Glutamate receptor 2 [2]
  EC50: 0.1 µM

## CC(C)S(=O)(=O)N[C@H]1CN(C)CC1c1ccc(-c2cccs2)cc1 (single isomer, unassigned)
Glutamate receptor 2 [1]
  Activity: 29%
Glutamate receptor 2 [2]
  EC50: 20 µM
[3]
  IC50: > 63 µM

## CC(C)S(=O)(=O)N[C@@H]1COCC1c1ccc(-c2ccc(F)cn2)cc1 (single isomer, unassigned)
Glutamate receptor 2 [1]
  Activity: 117%
Liver microsomes
  CL: 0.8 mL/min/g
Glutamate receptor 2 [2]
  EC50: 0.3 µM
[3]
  IC50: > 63 µM

## CC(C)S(=O)(=O)N[C@@H]1COCC1c1ccc(-c2ccc(F)nc2)cc1 (single isomer, unassigned)
Glutamate receptor 2 [1]
  Activity: 125%
Glutamate receptor 2 [2]
  EC50: 0.3 µM
[3]
  IC50: 12.6 µM

## CC(=O)Nc1cccc(-c2ccc(C3CN(C)C[C@@H]3NS(=O)(=O)C(C)C)cc2)c1 (single isomer, unassigned)
Glutamate receptor 2 [1]
  Activity: 79%
Glutamate receptor 2 [2]
  EC50: 4 µM
[3]
  IC50: 12.6 µM

## CC(C)S(=O)(=O)N[C@H]1CN(C)CC1c1ccc(-c2cccnc2)cc1 (single isomer, unassigned)
Glutamate receptor 2 [1]
  Activity: 100%
Glutamate receptor 2 [2]
  EC50: 4 µM
[3]
  IC50: 31.6 µM

## CC(C)S(=O)(=O)N[C@H]1CN(C)CC1c1ccc(-c2ccsc2)cc1 (single isomer, unassigned)
Glutamate receptor 2 [1]
  Activity: 106%
Glutamate receptor 2 [2]
  EC50: 3.2 µM
[3]
  IC50: 4 µM

## CC(C)S(=O)(=O)N[C@H]1CN(C)CC1c1ccc(-c2cccc(S(C)(=O)=O)c2)cc1 (single isomer, unassigned)
Glutamate receptor 2 [1]
  Activity: 75%
Glutamate receptor 2 [2]
  EC50: 5 µM
